In patent US8883850B2, “Naphthalene carboxamide M1 receptor positive allosteric modulators” (Merck Sharp & Dohme Corp., priority 2010, dated 2014):
Where two headings read alike, the source gives them in different places.

Target: T1, acetylcholine muscarinic M1 receptor (Homo sapiens, UniProt P11229)
T1 construct: expressed in transfected cells; host or cells: CHOnfat (CHO cells; also called CHOK1/hM1)
T1 sequence (P11229 1-460): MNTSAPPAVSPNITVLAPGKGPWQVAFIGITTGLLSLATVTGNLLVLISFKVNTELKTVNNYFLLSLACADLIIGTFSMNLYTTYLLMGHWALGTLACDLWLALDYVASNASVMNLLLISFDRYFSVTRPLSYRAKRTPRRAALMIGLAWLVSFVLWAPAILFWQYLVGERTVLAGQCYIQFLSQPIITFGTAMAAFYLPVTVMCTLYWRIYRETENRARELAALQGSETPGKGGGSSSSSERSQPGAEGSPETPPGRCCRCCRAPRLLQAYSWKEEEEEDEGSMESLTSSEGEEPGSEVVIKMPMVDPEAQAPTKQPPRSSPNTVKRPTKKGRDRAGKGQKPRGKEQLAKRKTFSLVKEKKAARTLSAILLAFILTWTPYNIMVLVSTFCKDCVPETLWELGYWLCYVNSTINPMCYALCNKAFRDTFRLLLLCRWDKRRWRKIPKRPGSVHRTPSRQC
Test: M1 FLIPR assay: intracellular calcium, potentiation of acetylcholine EC20
Format: cell-based
Description: The assay studies the effect of one or several concentrations of test compounds on basal or acetylcholine-stimulated Ca^2+ levels using FLIPR.
For each compounds of the invention that was evaluated, the compound is prepared and subjected to a pre-incubation period of four minutes. Thereafter, a single EC20 concentration of acetylcholine is added to each well (3 nM final). The intracellular Ca^2+ level of each sample is measured and compared to an acetylcholine control to determine any modulatory activity.
Cells: CHOnfat/hM1, hM2, hM3 or hM4 cells are plated 24 hours before the assay at a density of 18,000 cells/well (100 μL) in a 384 well plate. CHOnfat/hM1 and CHOnfat/hM3 Growth Medium: 90% DMEM (Hi Glucose); 10% HI FBS; 2 mM L-glutamine; 0.1 mM NEAA; Pen-Strep; and 1 mg/ml Geneticin, are added. For M2Gqi5CHOnfat and M4Gqi5CHOnfat cells, an additional 600 μg/ml hygromycin is added.
Dye Loading Buffer: Assay Buffer plus 1% Fetal Bovine Serum and Fluo-4AM/Pluronic Acid Mixture. […] 20% Pluronic acid solution stock, with a concentration of 0.04% in Buffer, 0.02% in Assay. 65 μL of 2 mM Fluo-4AM are mixed with 130 μL of 20% pluronic acid. The resulting solution and 650 μL FBS is added to the assay buffer for a total volume of 65 mL.
Positive Controls: 4-Br-A23187: 10 mM in DMSO, final concentration 10 μM. Acetylcholine: […], working stock at both 20 μM and 30 μM in assay buffer, final concentration of 10 μM. This is used to check the maximum stimulation of the CHOK1/hM1 cells. 20 μM (2×) acetylcholine is added in the preincubation part of the assay, and the 30 μM (3×) stock is added in the second part. (EC20)Acetylcholine: 10 mM in water, working stock of 9 nM (3×), and final concentration in assay is 3 nM. This is used after the preincubation with test compounds. Addition of the EC20 Acetylcholine to each well with a test compound will ascertain any modulator activity. 24 wells contain 3 nM Acetylcholine alone as a control.
Four 96-well plates are combined into a 384-well plate using Mosquito Nanoliter Pipetting System by transferring 1 μl of serial diluted compounds to each well, and 1 mM acetylcholine (100× stock concentration) were added as a control. Using Temo, 49 μl assay buffer is added to each well of the 384-well plate right before assay.
In a 96-well Whatman 2 ml Uniplate, 9 nM Acetylcholine (3×) is pipetted into wells corresponding to the screening compounds, and into control wells. The 30 μM acetylcholine control (3×) is added into control wells, and the 3× agonist plate is transferred into a 384 well plate.
Cells are washed three times with 100 μL of buffer, leaving 30 μL of buffer in each well. Using Multimek, 30 μL of Dye Loading Buffer is added into each well and incubated at 37° C., 5% CO2 for up to one hour.
After 60 minutes, the cells are washed three times with 100 μL of buffer, leaving 30 μL of buffer in each well. The cell plate, screening plate, and agonist addition plates are placed on the platform in the FLIPR and the door closed. A signal test to check background fluorescence and basal fluorescence signal is performed. Laser intensity is adjusted if necessary.
Four minutes of pre-incubation with the test compounds is provided to determine any agonist activity on the M1 receptor by comparison to the […] acetylcholine control. After pre-incubation, the EC20 value of acetylcholine (3 nM final) is added to determine any modulator activity.

[1] = M1 activity in a FLIPR assay, Table 3, Examples 1-12, read-out: M1 Potential
[2] = inflection point value from FLIPR assay, CHOnfat/hM1 cells, 4 min pre-incubation, then acetylcholine EC20 (3 nM final), Table 1, Formula (III), read-out: M1 IP Value

EC50 [1] [nM]	EC50 [2] [nM]	Compound	also measured
190	–	CCc1ccc(Cc2cc(C(=O)N[C@H]3CCCC[C@@H]3O)c(OC)c3ccccc23)cn1 [Example 9, N-[(1S,2S)-2-Hydroxycyclohexyl]-1-methoxy-4-[(6-ethylpyridin-3-yl)methyl]-2-naphthamide]	–
–	22	COc1c(C(=O)N[C@H]2CCOC[C@@H]2O)cc(Cc2ccc(-c3ccc(C)nc3)nc2)c2ccccc12 [Compound 1-15]	–
–	87	COc1c(C(=O)N[C@H]2CCOC[C@@H]2O)cc(Cc2ccc(C)nc2)c2ccccc12 [Compound 1-13]	–
–	6.8	COc1c(C(=O)N[C@H]2CCOC[C@@H]2O)cc(Cc2ccc(-c3ccnc(C)c3)nc2)c2ccccc12 [Compound 1-14]	–
3320	–	COc1ccc(Cc2cc(C(=O)O)c(OC)c3ccccc23)cc1 [Example 1, 1-Methoxy-4-(4-methoxybenzyl)-2-naphthoic acid]	–
4710	–	O=C(N[C@H]1CCCC[C@@H]1O)c1cc(Cc2ccc(-n3cccn3)nc2)c2ccccc2c1O [Example 6, 1-Hydroxy-N-[(1S,2S)-2-hydroxycyclohexyl]-4-{[6-(1H-pyrazol-1-yl)pyridine-3-yl]methyl}-2-naphthamide]	–
574	–	COc1c(C(=O)O)cc(Cc2ccc(-n3cccn3)cc2)c2ccccc12 [Example 2, 1-Methoxy-4-[4-(1H-pyrazol-1-yl)benzyl]-2-naphthoic acid]	–
260	–	COc1c(C(=O)N[C@H]2CCCC[C@@H]2O)cc(Cc2ccc(Cl)nc2)c2ccccc12 [Example 3, 4-[(6-Chloropyridin-3-yl)methyl]-N-[(1S,2S)-2-hydroxycyclohexyl]-1-methoxy-2-naphthamide]	–
82	–	COc1c(C(=O)N[C@H]2CCCC[C@@H]2O)cc(Cc2ccc(-n3cccn3)nc2)c2ccccc12 [Example 7, N-[(1S,2S)-2-Hydroxycyclohexyl]-1-methoxy-4-{[6-(1H-pyrazol-1-yl)pyridine-3-yl]methyl}-2-naphthamide]	–
56	–	COc1c(C(=O)N[C@H]2CCOC[C@@H]2O)cc(Cc2ccc(Cl)nc2)c2ccccc12 [Example 10, 4-[(6-Chloropyridin-3-yl)methyl]-N-[(3R,4S)-3-hydroxytetrahydro-2H-pyran-4-yl]-1-methoxy-2-naphthamide]	–
281	–	COc1c(C(=O)N[C@H]2CCCC[C@@H]2O)cc(Cc2ccnc(SC)c2)c2ccccc12 [Example 11, N-[(1S,2S)-2-Hydroxycyclohexyl]-1-methoxy-4-{[2-(methylthio)pyridin-4-yl]methyl}-2-naphthamide]	–
–	169	COc1c(C(=O)N[C@H]2CCCC[C@@H]2O)cc(Cc2ccc(SC)nc2)c2ccccc12 [Compound 1-9]	–
–	24	COc1c(C(=O)N[C@H]2CCCC[C@@H]2O)cc(Cc2ccc(-c3cccnc3)nc2)c2ccccc12 [Compound 1-3]	–
985	–	CCOc1c(C(=O)N[C@H]2CCCC[C@@H]2O)cc(Cc2ccc(Cl)nc2)c2ccccc12 [Example 12]	–
3880	–	COc1c(C(=O)N[C@H]2CCCC[C@@H]2O)cc(CN2CCN(c3cnn(C)c3)CC2)c2ccccc12 [Example 8, N-[(1S,2S)-2-Hydroxycyclohexyl]-1-methoxy-4-{[4-(1-methyl-1H-pyrazol-4-yl)piperazin-1-yl]methyl}-2-naphthamide]	–
–	140	COc1cc(Cc2cc(C(=O)N[C@H]3CCCC[C@@H]3O)c(OC)c3ccccc23)ccn1 [Compound 1-12]	–
121	–	COc1c(C(=O)N[C@H]2CCCC[C@@H]2O)cc(Cc2ccc(C)nc2)c2ccccc12 [Example 4]	–
–	872	COc1c(C(=O)O)cc(Cc2ccc(-c3ccccc3)cc2)c2ccccc12 [Compound 1-1]	–
–	280	COc1ccc(Cc2cc(C(=O)N[C@H]3CCCC[C@@H]3O)c(OC)c3ccccc23)cn1 [Compound 1-7]	–
–	224	COc1c(C(=O)N[C@H]2CCCC[C@@H]2O)cc(Cc2ccnc(C)c2)c2ccccc12 [Compound 1-11]	–
–	–	C=CCOc1c(C(=O)N[C@H]2CCCC[C@@H]2O)cc(Cc2ccc(Cl)nc2)c2ccccc12 [Compound 2-2]	EC50 (inflection point value from FLIPR assay, CHOnfat/hM1 cells, 4 min pre-incubation, then acetylcholine EC20 (3 nM final), Table 2, Formula (IV), read-out: M1 IP Value): 1140 nM
–	1550	COc1c(C(=O)O)cc(Cc2ccc(NC(C)=O)cc2)c2ccccc12 [Compound 1-2]	–

Compound	EC50 [1] [nM]	EC50 [2] [nM]	also measured
COc1c(C(=O)N[C@H]2CCCC[C@@H]2O)cc(Cc2ccc(-c3cnn(C)c3)nc2)c2ccccc12 [Example 5, N-[(1S,2S)-2-Hydroxycyclohexyl]-1-methoxy-4-{[6-(1-methyl-1H-pyrazol-4-yl)pyridine-3-yl]methyl}-2-naphthamide]	17	–	–
